The record followed here is patent publication EP0908457B1, “3-(1,2-benzisothiazol- and isoxazol-5-Y1)-2,4(1H,3H)-pyrimidinedione or thione and 3-(1,2-benzisothiazol- and isoxazol-5-y1)-4(3H)-pyrimidinone or thione herbicidal agents” (BASF AKTIENGESELLSCHAFT, priority 1997, dated 1999).

What all share (assay type): in vivo
For assay [1], the system named is Monochoria vaginalis, Presl. As to the kind of experiment: Preemergence weed control under flooded paddy conditions, MOOVA (Monochoria). Conditions: flooded paddy; for herbicidal effect rating, MOOVA / MOOVA herbicidal rating / MOOVA herbicidal effect rating: preemergence, rated three to four weeks after treatment; for MOOVA: preemergence weeds, herbicidal effect rating 0-9, three to four weeks after treatment.

In another assay the test system is Sagittaria pygmaea, L. As to the kind of experiment: Preemergence weed control under flooded paddy conditions, SAGPY (Arrowhead (Pygmaea)). Conditions: preemergence, flooded paddy, rated three to four weeks after treatment.
The test system of assay [2] is Cyperus serotinus, Rottb. As to the kind of experiment: Preemergence weed control under flooded paddy conditions, CYPSE (Flatsedge). Conditions: for herbicidal effect rating, CYPSE / CYPSE herbicidal rating / CYPSE herbicidal effect rating: preemergence, rated three to four weeks after treatment; for CYPSE: preemergence weeds, herbicidal effect rating 0-9, three to four weeks after treatment.

For assay [3], the system named is Echinochloa oryzoides (Ard.) Fritsch. As to the kind of experiment: Preemergence weed control under flooded paddy conditions, ECHORC (Watergrass (Calif.)). Conditions: flooded paddy; for herbicidal effect rating, ECHORC / ECHORC herbicidal rating / ECHORC herbicidal effect rating: preemergence, rated three to four weeks after treatment; for ECHORC: preemergence weeds, herbicidal effect rating 0-9, three to four weeks after treatment.

A further assay has as its system Cyperus iria. As to the kind of experiment: Preemergence weed control under flooded paddy conditions, CYPIR (Rice Flatsedge). Conditions: flooded paddy; for herbicidal effect rating, CYPIR / CYPIR herbicidal rating / CYPIR herbicidal effect rating: preemergence, rated three to four weeks after treatment; for CYPIR: preemergence weeds, herbicidal effect rating 0-9, three to four weeks after treatment.

For `CN(O)C(=O)c1nsc2ccc(-n3c(=O)cc(C(F)(F)F)n(C)c3=O)cc12` [Example 398, 1,2-Benzisothiazole-3-carbohydroxamic acid, 5-[3,6-dihydro-3-methyl-2,6-dioxo-4-(trifluoromethyl)-1(2H)-pyrimidinyl]-N-methyl-], the “herbicidal effect rating, MOOVA” value in assay [1] (Rate 0.0320 kg/ha) is 6.0; in assay [1] (Rate 0.0620 kg/ha), 9.0; in assay [1] (Rate 0.1250 kg/ha), 9.0; in assay [1] (Rate 0.2500 kg/ha), 9.0. The “herbicidal effect rating, SAGPY” value with Sagittaria pygmaea, L. (Rate 0.0320 kg/ha) was 0.0; with Sagittaria pygmaea, L. (Rate 0.0620 kg/ha), 0.0; in the assay with Sagittaria pygmaea, L. (Rate 0.1250 kg/ha), 0.0; with Sagittaria pygmaea, L. (Rate 0.2500 kg/ha), 3.0. For the same molecule, the “herbicidal effect rating, CYPSE” value in assay [2] (Rate 0.0320 kg/ha) was determined as 0.0; in assay [2] (Rate 0.0620 kg/ha), 0.0; in assay [2] (Rate 0.1250 kg/ha), 3.0; in assay [2] (Rate 0.2500 kg/ha), 3.0. Also, the “herbicidal effect rating, ECHORC” value in assay [3] (Rate 0.0320 kg/ha) is 0.0; in assay [3] (Rate 0.0620 kg/ha) it was 2.0; in assay [3] (Rate 0.1250 kg/ha), 3.0; in assay [3] (Rate 0.2500 kg/ha), 8.0. In addition, the “herbicidal effect rating, CYPIR” value in the assay with Cyperus iria (Rate 0.0320 kg/ha) was 0.0; with Cyperus iria (Rate 0.0620 kg/ha), 3.0; with Cyperus iria (Rate 0.1250 kg/ha), 6.0; with Cyperus iria (Rate 0.2500 kg/ha), 8.0.

With `Cn1c(C(F)(F)F)cc(=O)n(-c2ccc3snc(COC(=O)c4cccs4)c3c2)c1=O` [Example 477, 2,4(1H,3H)-Pyrimidinedione, 3-[3-(hydroxymethyl)-1,2-benzisothiazol-5-yl]-1-methyl-6-(trifluoromethyl)-, 2-thiophenecarboxylate (ester)], the MOOVA herbicidal rating in assay [1] (0.0320 kg/ha) was determined as 3.0; in assay [1] (0.0620 kg/ha), 3.0; in assay [1] (0.1250 kg/ha) it was 6.0; in assay [1] (0.2500 kg/ha) it was 7.0. The SAGPY herbicidal rating in the assay on Sagittaria pygmaea, L. (0.0320 kg/ha) amounted to 0.0; in the assay with Sagittaria pygmaea, L. (0.0620 kg/ha), 0.0; in the assay on Sagittaria pygmaea, L. (0.1250 kg/ha), 0.0; with Sagittaria pygmaea, L. (0.2500 kg/ha), 2.0. In addition, the CYPSE herbicidal rating in assay [2] (0.0320 kg/ha), in assay [2] (0.0620 kg/ha) and in assay [2] (0.2500 kg/ha) was 3.0 each time. For the same molecule, the ECHORC herbicidal rating in assay [3] (0.0320 kg/ha) is on record as 0.0; in assay [3] (0.0620 kg/ha) it was 0.0; in assay [3] (0.1250 kg/ha), 2.0; in assay [3] (0.2500 kg/ha) it was 3.0. Further, the CYPIR herbicidal rating turned out to be 4.0 with Cyperus iria (0.0320 kg/ha), 4.0 in the assay on Cyperus iria (0.0620 kg/ha), 5.0 in the assay with Cyperus iria (0.1250 kg/ha) and 6.0 in the assay with Cyperus iria (0.2500 kg/ha).

With `CCC(C)S(=O)(=O)NC(=O)c1nsc2ccc(-n3c(=O)cc(C(F)(F)F)n(C)c3=O)cc12` (centres unmarked) [Example 395, 1,2-Benzisothiazole-3-carboxamide, 5-[3,6-dihydro-3-methyl-2,6-dioxo-4-(trifluoromethyl)-1(2H)-pyrimidinyl]-N-[(1-methylpropyl)sulfonyl]-], the “herbicidal effect rating, MOOVA” value in assay [1] (Rate 0.0320 kg/ha), in assay [1] (Rate 0.0620 kg/ha), in assay [1] (Rate 0.1250 kg/ha) and in assay [1] (Rate 0.2500 kg/ha) was 9.0 in each case. Besides, the “herbicidal effect rating, SAGPY” value in the assay on Sagittaria pygmaea, L. (Rate 0.0320 kg/ha) amounted to 0.0; in the assay with Sagittaria pygmaea, L. (Rate 0.0620 kg/ha), 2.0; in the assay on Sagittaria pygmaea, L. (Rate 0.1250 kg/ha), 4.0; in the assay with Sagittaria pygmaea, L. (Rate 0.2500 kg/ha), 5.0. The “herbicidal effect rating, CYPSE” value in assay [2] (Rate 0.0320 kg/ha), in assay [2] (Rate 0.0620 kg/ha), in assay [2] (Rate 0.1250 kg/ha) and in assay [2] (Rate 0.2500 kg/ha) was 0.0 throughout. In addition, the “herbicidal effect rating, ECHORC” value in assay [3] (Rate 0.0320 kg/ha) is 0.0; in assay [3] (Rate 0.0620 kg/ha), 0.0; in assay [3] (Rate 0.1250 kg/ha), 2.0; in assay [3] (Rate 0.2500 kg/ha) it was 3.0. Moreover, the “herbicidal effect rating, CYPIR” value in the assay with Cyperus iria (Rate 0.0320 kg/ha) worked out at 0.0; with Cyperus iria (Rate 0.0620 kg/ha) it was 0.0; with Cyperus iria (Rate 0.1250 kg/ha), 0.0; with Cyperus iria (Rate 0.2500 kg/ha) it was 3.0.

`CC(OCc1nsc2ccc(-n3c(=O)cc(C(F)(F)F)n(C)c3=O)cc12)C(F)(F)F` (centres unmarked) [Example 208]: the “MOOVA herbicidal effect rating” value was determined as 0.0 in assay [1] (Rate 0.0313 kg/ha), 2.0 in assay [1] (Rate 0.0625 kg/ha), 2.0 in assay [1] (Rate 0.1250 kg/ha) and 4.0 in assay [1] (Rate 0.2500 kg/ha). The “SAGPY herbicidal effect rating” value in the assay on Sagittaria pygmaea, L. (Rate 0.0313 kg/ha) is given as 0.0; with Sagittaria pygmaea, L. (Rate 0.0625 kg/ha), 0.0; in the assay with Sagittaria pygmaea, L. (Rate 0.1250 kg/ha), 0.0; with Sagittaria pygmaea, L. (Rate 0.2500 kg/ha), 0.0. The “CYPSE herbicidal effect rating” value in assay [2] (Rate 0.0313 kg/ha), in assay [2] (Rate 0.0625 kg/ha), in assay [2] (Rate 0.1250 kg/ha) and in assay [2] (Rate 0.2500 kg/ha) was 0.0 throughout. In addition, the “ECHORC herbicidal effect rating” value in assay [3] (Rate 0.0313 kg/ha), in assay [3] (Rate 0.0625 kg/ha), in assay [3] (Rate 0.1250 kg/ha) and in assay [3] (Rate 0.2500 kg/ha) was 0.0 in each case. The “CYPIR herbicidal effect rating” value with Cyperus iria (Rate 0.0313 kg/ha), with Cyperus iria (Rate 0.0625 kg/ha), with Cyperus iria (Rate 0.1250 kg/ha) and with Cyperus iria (Rate 0.2500 kg/ha) was 9.0 in each case.

Turning to `CCCCS(=O)(=O)OC(C)c1nsc2ccc(-n3c(=O)cc(C(F)(F)F)n(C)c3=O)cc12` (centres unmarked) [Example 414, 2,4(1H,3H)-Pyrimidinedione, 3-[3-(1-hydroxyethyl)-1,2-benzisothiazol-5-yl]-1-methyl-6-(trifluoromethyl)-, butanesulfonate (ester)], the MOOVA in assay [1] (0.0620 kg/ha), in assay [1] (0.1250 kg/ha) and in assay [1] (0.2500 kg/ha) was 7.0 throughout. In addition, the results for the CYPSE in assay [2] (0.0320 kg/ha) and in assay [2] (0.2500 kg/ha) were 0.0 and 9.0, respectively. Moreover, the ECHORC in assay [3] (0.0320 kg/ha) came to 0.0; in assay [3] (0.0620 kg/ha), 0.0; in assay [3] (0.1250 kg/ha) it was 2.0; in assay [3] (0.2500 kg/ha), 7.0. Besides, the CYPIR was determined as 0.0 in the assay on Cyperus iria (0.0320 kg/ha), 2.0 with Cyperus iria (0.0620 kg/ha), 6.0 with Cyperus iria (0.1250 kg/ha) and 9.0 with Cyperus iria (0.2500 kg/ha).

As for `CC(OS(=O)(=O)C(C)C)c1nsc2ccc(-n3c(=O)cc(C(F)(F)F)n(C)c3=O)cc12` (centres unmarked) [Example 413, 2,4(1H,3H)-Pyrimidinedione, 3-[3-(1-hydroxyethyl)-1,2-benzisothiazol-5-yl]-1-methyl-6-(trifluoromethyl)-, 1-methylethanesulfonate (ester)], the MOOVA in assay [1] (0.0320 kg/ha) worked out at 7.0; in assay [1] (0.0620 kg/ha), 9.0; in assay [1] (0.1250 kg/ha) it was 9.0; in assay [1] (0.2500 kg/ha), 9.0. Also, the CYPSE in assay [2] (0.0320 kg/ha) is 0.0; in assay [2] (0.0620 kg/ha), 3.0; in assay [2] (0.1250 kg/ha), 5.0; in assay [2] (0.2500 kg/ha), 9.0. For the same molecule, the ECHORC in assay [3] (0.0320 kg/ha) turned out to be 0.0; in assay [3] (0.0620 kg/ha), 0.0; in assay [3] (0.1250 kg/ha), 0.0; in assay [3] (0.2500 kg/ha), 6.0. Further, the CYPIR was found to be 0.0 with Cyperus iria (0.0320 kg/ha), 2.0 with Cyperus iria (0.0620 kg/ha), 5.0 in the assay with Cyperus iria (0.1250 kg/ha) and 7.0 in the assay on Cyperus iria (0.2500 kg/ha).

On to `CC(=O)OCCSC(SCCOC(C)=O)c1nsc2ccc(-n3c(=O)cc(C(F)(F)F)n(C)c3=O)cc12` [Example 418, 1,2-Benzisothiazole-3-carboxaldehyde, 5-[3,6-dihydro-3-methyl-2,6-dioxo-4-(trifluoromethyl)-1(2H)-pyrimidinyl]-, 3-[bis(2-hydroxyethyl)dithioacetal], diacetate (diester)], for which the MOOVA in assay [1] (0.0620 kg/ha), in assay [1] (0.1250 kg/ha) and in assay [1] (0.2500 kg/ha) was 0.0 in each case. For the same molecule, the CYPSE in assay [2] (0.0620 kg/ha) and in assay [2] (0.2500 kg/ha) was 0.0 each time. Also, the ECHORC in assay [3] (0.0620 kg/ha) amounted to 0.0; in assay [3] (0.1250 kg/ha) it was 1.0; in assay [3] (0.2500 kg/ha) it was 3.0. Further, the CYPIR with Cyperus iria (0.0620 kg/ha), with Cyperus iria (0.1250 kg/ha) and with Cyperus iria (0.2500 kg/ha) was 0.0 in each case.
